Experimental data taken from ChEMBL document CHEMBL5726270, “1-pyrazolyl-3-(4-((2-anilinopyrimidin-4-yl)oxy)napththalen-1-yl) ureas as P38 MAP knase inhibitors” (2017).
pIC50: −log10 of the molar value.

Molecular target: T1, Mitogen-activated protein kinase 12 (Homo sapiens, UniProt P53778)
T1 sequence (P53778 whole entry): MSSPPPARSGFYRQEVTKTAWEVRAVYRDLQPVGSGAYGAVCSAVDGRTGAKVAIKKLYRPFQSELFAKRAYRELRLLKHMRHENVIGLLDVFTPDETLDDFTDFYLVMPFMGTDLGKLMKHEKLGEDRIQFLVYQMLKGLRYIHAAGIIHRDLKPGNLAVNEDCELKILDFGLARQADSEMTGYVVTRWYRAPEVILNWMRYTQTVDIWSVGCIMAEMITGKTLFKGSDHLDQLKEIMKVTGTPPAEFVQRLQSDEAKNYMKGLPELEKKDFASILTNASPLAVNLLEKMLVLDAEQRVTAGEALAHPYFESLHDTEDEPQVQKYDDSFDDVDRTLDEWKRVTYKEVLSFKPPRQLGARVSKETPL
Experiment: p38 MAPKγ Enzyme Inhibition: The inhibitory activities of compounds of the invention against p38MAPKγ (MAPK12: Invitrogen), were evaluated in a similar fashion to that described hereinabove. The enzyme (800 ng/mL, 2.5 μL) was incubated with the test compound (2.5 μL at either 4 μg/mL, 0.4 μg/mL, 0.04 μg/mL, or 0.004 μg/mL) for 2 hr at RT. The FRET peptides (8 μM, 2.5 μL), and appropriate ATP solution (2.5 μL, 400 μM) was then added to the enzymes/compound mixtures and incubated for 1 hr. Development reagent (protease, 5 μL) was added for 1 hr prior to detection in a fluorescence microplate reader (Varioskan® Flash, Thermo Scientific).

## Cc1ccc(-n2nc(C(C)(C)C)cc2NC(=O)Nc2ccc(Oc3ccnc(Nc4ccccc4Cl)n3)c3ccccc23)cc1
  pIC50: < 4.82
